Consider 1 compound from PMC12250302, “Synthesis, Antimicrobial Activities, and Model of Action of Novel Tetralone Derivatives Containing Aminoguanidinium Moiety” (International Journal of Molecular Sciences, 2025).

Values after ≈ are worked out from the molar mass of the structure shown.

Data set [1] concerns MRSA-2. It is filed as cell-based, Staphylococcus aureus. Conditions: not told. The procedure:
MRSA-2 bacterial precipitates in the logarithmic growth phase were collected by centrifugation, washed, and resuspended in PBS to a density of 1 × 10^6 CFU/mL. PI (10 μM, 40 μL) was added to a black 96-well plate along with 150 μL of bacterial suspension. After an incubation period of 30 min, fluorescence was detected at excitation wavelengths of 535 nm and emission wavelengths of 617 nm at 5 min intervals until a stable state was reached.

Data set [2] relates to MRSA-2 biofilm. Briefly: Biofilm formation inhibition assay (crystal violet). It is filed as cell-based, Staphylococcus aureus. The settings on record: MRSA-2. The procedure: The effect of 2D on the biofilm formation of MRSA was evaluated. MRSA-2 was cultured in MH broth for a period of 3–5 h, after which it was diluted to a density of 1 × 10^6 CFU/mL with MH broth. […] After the removal of the suspended bacteria, the well plates were washed thrice with PBS. Then, 150 μL of methanol was added and fixed for 30 min. Subsequent to air-drying, 150 μL of a 0.1% crystal violet aqueous solution was added. Following a 15 min staining period, the excess crystal violet was removed by rinsing with flowing water. Finally, 150 μL of anhydrous ethanol was added and the mixture was incubated for 20 min. The optical density at 575 nm was detected.

Data set [3] deals with MRSA-2 biofilm. Briefly: Biofilm elimination assay (crystal violet). The data set is classed as cell-based, Staphylococcus aureus. Conditions: 0.25 μg/mL, 24 h. Here is the method:
The ability of 2D to eliminate biofilm was evaluated. MRSA-2 (1 × 10^6 CFU/mL) was incubated in 96-well plates for 24 h until biofilm formation. The planktonic bacteria were discarded and washed thrice with PBS. […] According to the above method, the OD575 nm value was detected after the following steps: PBS washing, methanol fixation, crystal violet staining, and ethanol incubation.

Data set [4] relates to clinical S. aureus isolate LMY48. Briefly: MIC and MBC testing, broth microdilution. It is filed as cell-based, Staphylococcus aureus. The settings on record: Staphylococcus aureus, LMY48. A digest of the protocol: (§1)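 Broth microdilution in MH broth; two-fold serial dilutions of DMSO-dissolved compound; inoculum 1 × 10^6 CFU/mL from log-phase culture; 37 °C, 18 h; triplicates; MBC also read.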
For orientation: Dilution methods test growth across graded concentrations, often in twofold steps.

The subject of data set [5] is MRSA-2. Briefly: MIC and MBC testing, broth microdilution. The data set is classed as cell-based, Staphylococcus aureus. The settings on record: Staphylococcus aureus, MRSA-2. A digest of the protocol: as §1
Data set [6] has as its system clinical S. aureus isolate LMY46. Briefly: MIC and MBC testing, broth microdilution. Conditions: Staphylococcus aureus, LMY46. It is filed as cell-based, Staphylococcus aureus. A digest of the protocol:
as §1

For data set [7], the system named is MRSA-1. Briefly: MIC and MBC testing, broth microdilution. It is filed as cell-based, Staphylococcus aureus. Conditions: Staphylococcus aureus, MRSA-1. A digest of the protocol: as §1
Data set [8] concerns clinical S. aureus isolate LMY47. Briefly: MIC and MBC testing, broth microdilution. The data set is classed as cell-based, Staphylococcus aureus. Conditions: Staphylococcus aureus, LMY47. A digest of the protocol:
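Log-phase cultures, adjusted to 1 × 10^6 CFU/mL in MH broth, are exposed to twofold serial compound dilutions and held at 37 °C for 18 h. Triplicate per concentration; both inhibitory and bactericidal endpoints are taken.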

Data set [9] relates to clinical S. aureus isolate LMY45. Description: MIC and MBC testing, broth microdilution. Conditions: Staphylococcus aureus, LMY45. The data set is classed as cell-based, Staphylococcus aureus. A digest of the protocol: as §1
In data set [10] the test system is K. pneumoniae ATCC 700603. Description: MIC and MBC testing, broth microdilution. It is filed as cell-based, Klebsiella pneumoniae. The settings on record: Klebsiella pneumoniae. A digest of the protocol:
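Bacteria are grown in MH broth to log phase, diluted to 1 × 10^6 CFU/mL, then added to doubling dilutions of compound. After 18 h incubation at 37 °C, the lowest concentration lacking visible growth is recorded as MIC. Each concentration is run in triplicate.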

Data set [11] relates to MRSA-2. Description: Bactericidal time-kill kinetics assay. The data set is classed as cell-based, Staphylococcus aureus. The settings on record: 2, 4 and 8 µg/mL, 0-24 h. Here is the method: (§2) S. aureus (ATCC 29213) and MRSA-2 were cultivated in MH broth until the logarithmic growth phase and then diluted to 1 × 10^7 CFU/mL, respectively. […] After a specified time interval (0, 1, 2, 4, 8, 12, and 24 h), the culture suspension was serially diluted in 0.9% saline over a concentration range from 10^−1 to 10^−9. A volume of 100 μL of the obtained diluent and culture solution was dispensed onto a sterile MH agar plate. The plate was subsequently cultured at 37 °C for a duration of 24 h. The total number of colonies was enumerated and expressed as log10(CFU/mL).

The test system of data set [12] is S. aureus (ATCC 29213). Briefly: Bactericidal time-kill kinetics assay. It is filed as cell-based, Staphylococcus aureus. The settings on record: 2, 4 and 8 µg/mL, 0-24 h. Here is the method:
as §2

Usually inhibition stands for how much of the control response was suppressed. The MIC is the smallest concentration in the dilution series that meets the test's criterion for growth inhibition. Usually MBC stands for the lowest tested concentration that kills the bacteria rather than only halting them. On to `[H]/N=C(\N)NN=C1CCCc2cc(OCCCCCCC)ccc21` [Compound 2D, (E)-2-(6-(heptyloxy)-3,4-dihydronaphthalen-1(2H)-ylidene)hydrazine-1-carboximidamide], for which the “PI fluorescence intensity (inner membrane permeability)” value in data set [1] was “significantly enhanced”. Moreover, the “reduction of biofilm formation” value in data set [2] (1 μg/mL (1MIC), 24 h) is on record as “more than 92%”. In addition, the “inhibition of biofilm formation” value in [2] (2–32 μg/mL (2-32MIC)) is “almost completely inhibited the formation of biofilm”. In addition, the inhibition at 0.25 µg/mL in [2] (Staphylococcus aureus, 0.25 μg/mL (1/4MIC), 24 h, read-out: inhibition rate of biofilm formation) is roughly 18.5%. For the same compound, the inhibition at 0.5 µg/mL in data set [2] (Staphylococcus aureus, 0.5 μg/mL (1/2MIC), 24 h, read-out: inhibition rate of biofilm formation) was roughly 37.8%. Also, the biofilm elimination rate in [3] is 21.4%. Moreover, the MIC in data set [4] (18 h, read-out: MIC) was 2 µg/mL (≈ 6.32 µM); in [5] (18 h, read-out: MIC), 1 µg/mL (≈ 3.16 µM); in data set [6] (18 h, read-out: MIC), 4 µg/mL (≈ 12.6 µM); in data set [7] (18 h, read-out: MIC) it was 1 µg/mL (≈ 3.16 µM); in [8] (18 h, read-out: MIC), 1 µg/mL (≈ 3.16 µM); in data set [9] (18 h, read-out: MIC), 2 µg/mL (≈ 6.32 µM). In addition, in data set [10] (ATCC700603, 18 h, read-out: MIC), the MIC worked out at 16 µg/mL (≈ 50.6 µM). The MBC in data set [4] (read-out: MBC) was determined as 2 µg/mL (≈ 6.32 µM); in data set [5] (read-out: MBC), 4 µg/mL (≈ 12.6 µM); in data set [6] (read-out: MBC), 32 µg/mL (≈ 101 µM); in data set [7] (read-out: MBC), 16 µg/mL (≈ 50.6 µM); in data set [8] (read-out: MBC), 4 µg/mL (≈ 12.6 µM); in [9] (read-out: MBC), 2 µg/mL (≈ 6.32 µM). The MBC in data set [10] (ATCC700603, read-out: MBC) came to 32 µg/mL (≈ 101 µM). Besides, the time-kill response result is “concentration-dependent and time-dependent bactericidal response” in [11]; “concentration-dependent and time-dependent bactericidal response” in [12].
